According to patent US20100286061A1, “PLASMIN-INHIBITORY THERAPIES” (priority 2004, published 2010):
“Also recorded” adds a separate entry of the source. Where two headings read alike, the source gives them in different places. Values belong to the substance of their own block, whether it stands above or below them. No end group written: not given here.

Key:
[1] = biological target: human plasmin (Homo sapiens, UniProt P00747); test: plasmin inhibition (Ki); format: biochemical
[2] = tested on: LNCaP cells; test: Chemo-invasion through Matrigel, LNCaP cells (DHT-stimulated); format: cell-based
Protocol: (§1) Cell culture of tumor cell lines: HT-1080 (fibrosarcoma), and LNCaP (androgen-dependent prostate cancer) cell lines were grown to 80% confluence in Dulbecco's modified Eagle medium (DMEM) supplemented with 10% FCS, glutamine ([…]), sodium bicarbonate (2.1 g/l), ascorbic acid ([…]) and penicillin-streptomycin (P/S) (100 U/ml). LNCaP cells were stimulated with di-hydro-testosterone (DHT, 10 nM). Non-adherent HL-60 (acute myeloid leukemia) cell line was grown in RPMI medium supplemented with 20% FCS, glutamine 4 mM, sodium bicarbonate (1.5 g/l) and P/S (100 U/ml). Cultures were maintained at a cell concentration between 1e5 and 1e6/ml.
(§2) Chemo-invasion: HT-1080 and LNCaP cells were seeded at 10^6/well in 24-well cluster plates and incubated overnight. They were then incubated in the presence of a dose range of DX-1000 for 24 hours. […] Chemo-invasion was assessed using Transwell cell culture chamber inserts (Becton Dickinson) with Growth Factor Reduced-[…]® (GFR-[…]®) coated filters. After trypsinization, cells were seeded in the upper part of the invasion chamber (1e4/insert). RPMI medium supplemented with 5% FCS and 1% BSA and NIH3T3 CM used as chemoattractants for HT-1080 and LNCaP cells, respectively. After 24 hours of incubation at 37° C., filters were removed from the chambers, stained, and the % of invading cells was evaluated. Each condition was performed in duplicate.

[3] = tested on: HT-1080 cells; test: Chemo-invasion through Matrigel, HT-1080 cells; format: cell-based
Protocol: as §1, §2

[4] = tested on: plasmin-mediated pro-MMP-9 activation in HL-60 cells; test: Gelatin zymography of HL-60 conditioned media; format: cell-based; details: for inhibition of plasmin-mediated pro-MMP-9 activation: HL-60 cells, gelatin zymography, 1 μM, 48 hours
Protocol: as §1
Gelatin zymography: HL-60 cells were cultured in serum-free medium (Ultraculture medium). Different conditions were considered: with and w/o DX-1000 at 1 μM; with or without pro-MMP-9 activators (plasmin+pro-MMP-3). Cells were cultured at 37° C./5% CO2 for 48 hours. Aliquots of conditioned media (CM) were then collected, clarified by centrifugation, mixed with electrophoresis sample buffer without reducing agent, and applied to 10% acrylamide gels containing gelatin (1 mg/ml). Active recombinant gelatinases served as standard. Samples were resolved at 20 mA, washed in 2% Triton X-100 for 1 hour and incubated at 37° C. for 16 hours in activation buffer containing 50 mM Tris-HCl, pH 7.4, 0.2 M NaCl, 5 mM CaCl2. After staining with Coomassie brilliant blue R-250, the gelatinolytic activities were detected as clear bands against the blue background.

[5] = tested on: plasmin-activated MMP-9 activity; test: BIOTRAK assay kit, MMP-9 activity in HL60 conditioned media; format: cell-based; details: 1 μM, HL60, two days of culture
Protocol: In addition to gelatin zymography, we evaluated the plasmin inhibitors using the BIOTRAK® assay kit. HL60 were seeded at 4×10^5 cells/well (24 wells plate) in a serum free medium (UltraCulture medium). The day after, different conditions were evaluated: samples with and without activators of pro-MMP9 (Plasmin and pro-MMP-3) and samples with and without DX-1000 and 4-PEG-DX-1000 (1 μM). After two days of culture, conditioned media were collected an activity of MMP-9 was assessed using the BIOTRAK® assay kit. Assay time was approximately one hour under standard conditions. At a 1 μM concentration, DX-1000 and 4-PEG DX-1000 effected an approximately 68-70% reduction in plasmin-activated MMP-9 activity.

[6] = tested on: HUVECs; test: Tube formation assay, HUVECs on collagen type I; format: cell-based, human; details: for IC50: total tube length, 16-18 hours, read-out: IC50 tube formation, HUVEC
Protocol: (§3) Tube formation assay: HUVECs were cultured on gelatin-coated culture dishes in RPMI medium. The cells (passage 2) were seeded at 8e4/well of a 96-well plate on collagen type I (1.5 mg/ml, SERVA) in their culture medium (EGM-2 complete medium supplemented with 10% FCS) and allowed to spread for 1 hour. The culture medium was then discarded and the cells were covered with a new layer of collagen type I (1.5 mg/ml, new preparation). […] Mouse endothelial cells (EC) (LEII cell line) were seeded at 2e4/well of a 96-well plate on GFR-Matrigel (BD) in their culture medium (IMDM supplemented with 10% FCS) in presence of a dose range of DX-1000 and incubated at 37° C./5% CO2 for 5 hours. Endothelial tube formation was assessed with an inverted photomicroscope (Analis). Microphotographs of the center of each well at low power (40×) were taken with a NIKON camera with the aid of imaging-capture software (NIKON). Tube formation in the microphotographs was quantitatively analyzed (total tube length) with METAVUE™ software (Universal Imaging Corporation). Tube formation by untreated HUVECs in full endothelial cell growth medium was used as a control. IC50 values were determined with SIGMAPLOT™.

[7] = tested on: Mouse endothelial cells (EC) (LEII cell line); test: Tube formation assay, mouse endothelial cells (LEII) on GFR-Matrigel; format: cell-based; details: for IC50: total tube length, 5 hours
Protocol: as §3

[8] = tested on: endothelial cells; test: in vitro endothelial tubulogenesis (tube formation) assay, cell type not specified; format: cell-based; details: for inhibition of tubulogenesis / angiogenesis in vitro: qualitative
Protocol: as §3
DX-1000 was also tested for its activity in an in vitro endothelial tubulogenesis assay (“tube formation assay” described in Methods.). […]

[9] = tested on: HT-1080 cells; test: Cell migration: scraping assay and Boyden chamber assay without Matrigel; format: cell-based; details: 1-10 μM in scraping assay
Protocol: Scraping assay: HT-1080 cells were seeded at 2e6/well in 6-well plates in complete medium. […] Cell layers were then scraped with a plastic tip.
The effect of DX-1000 on cell migration was evaluated using two different assays, the scraping assay and a Boyden chamber assay without Matrigel.

[10] = tested on: SW480 cells; test: Soft agar colony formation; format: cell-based, human; details: 0.1 to 50 μM
Protocol: We also evaluated DX-1000 in an assay to measure the sensitivity of human tumors to drugs before progressing to in vivo studies. SW-480 cells are grown in vitro in soft agar, reducing cell movement and allowing individual cells to develop into cell clones that are identified as single colonies. 3,000 SW480 cells were seeded into each well of six well plates. Each treatment was run in triplicate. Five 4× images were taken from each well for quantification using the […]® software.

[11] = tested on: HL-60 cells; test: Apoptosis (caspase 3/7 activity, FACS), HL-60; format: cell-based; details: also FACS assay
Protocol: (§4) Apoptosis was evaluated using an assay for detecting caspase 3/7 activity using caspase 3/7 substrate. Apoptosis was also not detected using a FACS assay.

[12] = tested on: SW-480 cells; test: Apoptosis (caspase 3/7 activity, FACS), SW-480; format: cell-based, human; details: also FACS assay
Protocol: as §4

[13] = global coagulation screening tests (haemostasis in vitro)
[14] = tested on: platelet function; test: platelet function screening test
[15] = tested on: clot lysis; test: clot lysis
[16] = tested on: fibrinolysis; test: Thrombelastography (TEG); details: 280-560 nM DX-1000
[17] = activated partial thromboplastin time (APTT)
[18] = prothrombin time (PT); details: concentrations>5.6 μM
[19] = Clauss fibrinogen assay; details: concentrations>5.6 μM
[20] = Pharmacokinetics of iodinated protein in normal mice; format: in vivo; details: tail vein injection
Protocol: (§5) Labeling: we used […] protein and the Iodogen (Pierce) method, ˜1.7 mCi. Purification: we used D-salt polyacrylamide column and collected fractions, with total recovery ˜90%. We pooled high yield fractions for injections. Mice: we injected […] via tail vein. One time point/animal; four animals/time point. We used the following time points: no PEG at 0, 7, 15, 30, and 90 min. PEG at 0, 7, 15, 30, and 90 min, 4, 8, 16, and 24 hrs. We analyzed total plasma counts, used HPLC on Superose 12 (stability), and analyzed biodistribution. Rabbits: we injected 80 mg/animal via left ear vein. Blood was drawn from the right ear at following time points: no PEG at 0, 7, 15, 30, 90 min, 4, 8, 16, 24, 48, 72, and 96 hrs. PEG at 0, 7, 15, 30, 90 min, 4, 8, 16, 24, 48, 72, 96, 120, 144, 168, and 192 hrs. We preformed the following analyses: total plasma counts and HPLC on Superose 12 (stability) at 48, 72, 96, 120, 144, 168, and 192 hrs.

[21] = Pharmacokinetics of iodinated protein in rabbits; format: in vivo; details: rabbit, ear vein injection
Protocol: as §5

[22] = Allometric extrapolation of stability to humans; details: allometric extrapolations from mouse and rabbit
Excerpt: By allometric extrapolations, we should expect a stability of 9 days in humans.

[23] = DX-1000 1-10 nM, Matrigel or collagen type I

Chain of human plasmin (P00747 581-810 limits assumed): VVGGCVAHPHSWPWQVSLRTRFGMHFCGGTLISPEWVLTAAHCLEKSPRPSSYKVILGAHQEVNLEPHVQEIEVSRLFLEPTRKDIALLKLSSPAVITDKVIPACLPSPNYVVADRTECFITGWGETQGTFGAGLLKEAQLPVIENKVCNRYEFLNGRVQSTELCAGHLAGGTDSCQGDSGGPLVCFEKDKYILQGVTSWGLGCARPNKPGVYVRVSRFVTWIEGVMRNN
Chain of human plasmin (P00747 97-580 partner limits assumed): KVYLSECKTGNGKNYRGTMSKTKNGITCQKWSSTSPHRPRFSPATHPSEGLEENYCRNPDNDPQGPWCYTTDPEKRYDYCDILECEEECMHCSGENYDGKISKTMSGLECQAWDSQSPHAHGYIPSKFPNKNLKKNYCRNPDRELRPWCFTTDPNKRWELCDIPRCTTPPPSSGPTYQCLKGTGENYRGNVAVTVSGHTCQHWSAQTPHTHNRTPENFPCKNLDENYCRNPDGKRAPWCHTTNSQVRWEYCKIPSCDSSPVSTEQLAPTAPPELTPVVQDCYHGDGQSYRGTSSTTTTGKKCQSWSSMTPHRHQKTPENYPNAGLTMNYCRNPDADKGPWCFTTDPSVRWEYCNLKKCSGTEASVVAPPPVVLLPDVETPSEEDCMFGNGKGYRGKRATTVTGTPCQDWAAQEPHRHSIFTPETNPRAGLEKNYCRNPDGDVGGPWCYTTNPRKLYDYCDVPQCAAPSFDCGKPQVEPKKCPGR

Ki [1]: 0.088 nM | IC50 [7]: 16.6 nM
Substance: DX-1000: Kunitz domain that inhibits human plasmin; framework region of human LACI; SEQ ID NO:22 or 23 (MHSFCAFKAETGPCRARFDRWFFNIFTRQCEEFIYGGCEGNQNRFESLEECKKMCTRD)
concentrations effective at inhibiting invasion in vitro (LNCaP) [2]: effective at nanomolar and sub-nanomolar concentrations | in vitro invasiveness of tumor cells (LNCaP) [2]: decreased in vitro invasiveness of tumor cells; also recorded: decreases the in vitro invasiveness of tumor cells | potency in invasion assay compared with aprotinin (LNCaP) [2]: more potent inhibitor than aprotinin | inhibition of DHT-stimulated invasion of LNCaPs through Matrigel ([2]; DX-1000 1 nM): inhibited | concentrations effective at inhibiting invasion in vitro (HT-1080) [3]: effective at nanomolar and sub-nanomolar concentrations | in vitro invasiveness of tumor cells (HT-1080) [3]: decreased in vitro invasiveness of tumor cells; also recorded: decreases the in vitro invasiveness of tumor cells | potency in invasion assay compared with aprotinin (HT-1080) [3]: more potent inhibitor than aprotinin | inhibition of invasion of HT-1080 through Matrigel ([3]; DX-1000 1 nM): inhibited | inhibition of plasmin-mediated pro-MMP-9 activation [4]: 64% | MMP (gelatinase) expression and activation ([4]; qualitative): inhibited plasmin-mediated MMP activation; also recorded: down-regulates MMP expression and activation; also recorded: down-regulated efficiently the expression and activation of gelatinases | reduction in plasmin-activated MMP-9 activity [5]: 68-70% | tube formation of human endothelial cells [6, 23]: efficiently blocked tube formation | IC50 ([6]; listed as DX-1000 (unmodified)): 1.39 nM | tube formation of mouse endothelial cells [7, 23]: efficiently blocked tube formation | efficiency at inhibiting tube formation compared with aprotinin [8]: at least as efficient as aprotinin | inhibition of tubulogenesis / angiogenesis in vitro [8]: decreased in vitro angiogenesis; also recorded: potent inhibitor of tubulogenesis in vitro | two-dimensional migration of HT-1080 cells in vitro [9]: did not inhibit migration; also recorded: does not inhibit | colony formation by SW480 cells [10]: did not inhibit colony formation | induction of apoptosis in HL-60 cells [11]: do not induce apoptosis | induction of apoptosis in SW-480 cells [12]: do not induce apoptosis | effects in global coagulation screening tests / haemostasis in vitro [13]: did not significantly influence haemostasis in vitro; also recorded: did not detect any clinically significant effects; also recorded: no clinically significant effects | effects in platelet function screening test [14]: no clinically significant effects | concentration at which inhibition of clot lysis was observed [15]: > 700 nM | fibrinolysis in thrombelastography (TEG) ([16]; two subjects with upper normal values): inhibition of fibrinolysis | fibrinolysis in TEG with tPA ([16]; tPA): reduction in fibrinolysis | APTT clotting times versus normal range ([17]; 1.4-5.6 μM): remained within the normal range | effect on activated partial thromboplastin time (APTT) ([17]; higher doses (1.4-5.6 μM)): weak dose-dependent effect | effect on prothrombin time (PT) [18]: did not observe an effect | effect on Clauss fibrinogen assays [19]: did not observe an effect | half-life [20]: 0.45 h | half-life [21]: about 1 h

IC50 [7]: 15.8 nM | IC50 ([8]; read-out: IC50 tube formation, cell type not given): 0.98 ± 1.25 nM
Substance: 4-PEG DX-1000: exemplary modified DX-1000 molecule that includes four PEG moieties (MHSFCAFKAETGPCRARFDRWFFNIFTRQCEEFIYGGCEGNQNRFESLEECKKMCTRD; cysteine pairing not given here; also: four PEG moieties, places not given here)
inhibition of plasmin-mediated pro-MMP-9 activation [4]: 92% | reduction in plasmin-activated MMP-9 activity [5]: 68-70% | IC50 [6]: 8.3 nM | inhibition of tubulogenesis / angiogenesis in vitro [8]: also inhibited tube formation | colony formation by SW480 cells [10]: did not inhibit colony formation | induction of apoptosis in HL-60 cells [11]: do not induce apoptosis | induction of apoptosis in SW-480 cells [12]: do not induce apoptosis | half-life [20]: 13 h | half-life [21]: 59 h | expected stability in humans [22]: 9 days
